Like-named read-outs stand apart in the source and are kept apart here.
Experiments:
[1] = tested on: MES-induced seizure in mice; assay: Maximal electroshock (MES) induced seizure test; type: in vivo, Male NMRI mice; details: for responders at 1 mg/kg / responders at 2 mg/kg / responders at 5 mg/kg / responders at 10 mg/kg / responders at 20 mg/kg / responders at 50 mg/kg / responders at 100 mg/kg: Mus musculus; for responders at 1 mg/kg: dose 1 mg/kg ip; for responders at 2 mg/kg / MES Number of animals protected / Number of tested animals: dose 2 mg/kg ip; for responders at 5 mg/kg: dose 5 mg/kg ip; for responders at 10 mg/kg: dose 10 mg/kg ip; for responders at 20 mg/kg: dose 20 mg/kg ip; for responders at 50 mg/kg: dose 50 mg/kg ip; for responders at 100 mg/kg: dose 100 mg/kg ip; for MES Number of animals protected / Number of tested animals: with flumazenil 1 mg/kg ip 15 min before seizure induction
[2] = tested on: PTZ-induced lethal convulsion in mice; assay: Pentylenetetrazole (PTZ) induced seizure test; type: in vivo, Male NMRI mice; details: Mus musculus; for responders at 2 mg/kg: dose 2 mg/kg ip; for responders at 5 mg/kg: dose 5 mg/kg ip; for responders at 10 mg/kg: dose 10 mg/kg ip; for responders at 50 mg/kg: dose 50 mg/kg ip; for responders at 1 mg/kg: dose 1 mg/kg ip
[3] = MES 50 mA, 60 Hz, 0.2 s, read-out: MES Number of animals protected / Number of tested animals (converted)
[4] = 30 min before PTZ 100 mg/kg ip, read-out: PTZ Number of animals protected / Number of tested animals
[5] = PTZ 100 mg/kg ip, read-out: PTZ %Protection
[6] = 30 min before PTZ 100 mg/kg ip, read-out: PTZ Number of animals protected / Number of tested animals (converted)
[7] = MES 50 mA, 60 Hz, 0.2 s, read-out: MES Number of animals protected / Number of tested animals

| Compound | responders at 1 mg/kg [1, 3] [%] | responders at 1 mg/kg ([1]; read-out: MES %Protection) [%] | responders at 2 mg/kg [1, 3] [%] | responders at 2 mg/kg ([1]; read-out: MES %Protection) [%] | responders at 5 mg/kg [1, 3] [%] | responders at 5 mg/kg ([1]; read-out: MES %Protection) [%] | responders at 10 mg/kg [1, 3] [%] | responders at 10 mg/kg ([1]; read-out: MES %Protection) [%] | responders at 5 mg/kg [2, 6] [%] | responders at 5 mg/kg [2, 5] [%] | responders at 20 mg/kg [1, 3] [%] | responders at 20 mg/kg ([1]; read-out: MES %Protection) [%] | further results |
| --- | --- | --- | --- | --- | --- | --- | --- | --- | --- | --- | --- | --- | --- |
| O=C(CSc1nnc(-c2ccccc2Oc2ccccc2)o1)Nc1ccc([N+](=O)[O-])cc1 [Compound 8L, N-(4-nitrophenyl)-2-((5-(2-phenoxyphenyl)-1,3,4-oxadiazol-2-yl)thio)acetamide] | 25 | 25 | 25 | 25 | 75 | 75 | 50 | 50 | 25 | 25 | – | – | responders at 2 mg/kg [2, 4]: 0%; responders at 2 mg/kg [2, 5]: 0%; responders at 10 mg/kg [2, 6]: 0%; responders at 10 mg/kg [2, 5]: 0% |
| O=C(CSc1nnc(-c2ccccc2Oc2ccccc2)o1)Nc1ccccc1 [Compound 8a, 2-((5-(2-phenoxyphenyl)-1,3,4-oxadiazol-2-yl)thio)-N -phenylacetamide] | 62.5 | 62.5 | 50 | 50 | 50 | 50 | 50 | 50 | 0 | 0 | 50 | 50 | – |
| Cc1ccc(NC(=O)CSc2nnc(-c3ccccc3Oc3ccccc3)o2)cc1 [Compound 8b, 2-((5-(2-phenoxyphenyl)-1,3,4-oxadiazol-2-yl)thio)-N -(p-tolyl)acetamide] | 0 | 0 | – | – | – | – | 25 | 25 | – | – | – | – | responders at 50 mg/kg [1, 7]: 40%; responders at 50 mg/kg ([1]; read-out: MES %Protection): 40%; responders at 100 mg/kg [1, 3]: 75%; responders at 100 mg/kg ([1]; read-out: MES %Protection): 75%; responders at 50 mg/kg [2, 4]: 0%; responders at 50 mg/kg [2, 5]: 0% |
| COc1ccc(NC(=O)CSc2nnc(-c3ccccc3Oc3ccccc3)o2)cc1 [Compound 8c, N-(4-methoxyphenyl)-2-((5-(2-phenoxyphenyl)-1,3,4-oxadiazol-2-yl)thio)acetamide] | 0 | 0 | 25 | 25 | 25 | 25 | 25 | 25 | – | – | 75 | 75 | responders at 2 mg/kg [2, 4]: 0%; responders at 2 mg/kg [2, 5]: 0% |
| O=C(CSc1nnc(-c2ccccc2Oc2ccccc2)o1)Nc1ccc(F)cc1 [Compound 8d, N-(4-fluorophenyl)-2-((5-(2-phenoxyphenyl)-1,3,4-oxadiazol-2-yl)thio)acetamide] | 25 | 25 | 50 | 50 | 50 | 50 | 50 | 50 | 0 | 0 | 25 | 25 | – |
| O=C(CSc1nnc(-c2ccccc2Oc2ccccc2)o1)Nc1ccc(F)cc1F [Compound 8e, N-(2,4-difluorophenyl)-2-((5-(2-phenoxyphenyl)-1,3,4-oxadiazol-2-yl)thio)acetamide] | 25 | 25 | – | – | 25 | 25 | 25 | 25 | 0 | 0 | – | – | – |
| O=C(CSc1nnc(-c2ccccc2Oc2ccccc2)o1)Nc1ccccc1Cl [Compound 8f, N-(2-chlorophenyl)-2-((5-(2-phenoxyphenyl)-1,3,4-oxadiazol-2-yl)thio)acetamide] | – | – | – | – | 0 | 0 | 25 | 25 | 0 | 0 | 75 | 75 | – |
| O=C(CSc1nnc(-c2ccccc2Oc2ccccc2)o1)Nc1cccc(Cl)c1 [Compound 8g, N-(3-chlorophenyl)-2-((5-(2-phenoxyphenyl)-1,3,4-oxadiazol-2-yl)thio)acetamide] | 62.5 | 62.5 | 25 | 25 | 50 | 50 | 75 | 75 | 0 | 0 | 62.5 | 62.5 | – |
| O=C(CSc1nnc(-c2ccccc2Oc2ccccc2)o1)Nc1cc(Cl)cc(Cl)c1 [Compound 8h, N-(3,5-dichlorophenyl)-2-((5-(2-phenoxyphenyl)-1,3,4-oxadiazol-2-yl)thio)acetamide] | 0 | 0 | 25 | 25 | 25 | 25 | 25 | 25 | 0 | 0 | 50 | 50 | – |
| O=C(CSc1nnc(-c2ccccc2Oc2ccccc2)o1)Nc1cccc(Br)c1 [Compound 8i, N-(3-bromophenyl)-2-((5-(2-phenoxyphenyl)-1,3,4-oxadiazol-2-yl)thio)acetamide] | 0 | 0 | – | – | 50 | 50 | 25 | 25 | 0 | 0 | 50 | 50 | – |
| O=C(CSc1nnc(-c2ccccc2Oc2ccccc2)o1)Nc1ccc(Br)cc1 [Compound 8j, N-(4-bromophenyl)-2-((5-(2-phenoxyphenyl)-1,3,4-oxadiazol-2-yl)thio)acetamide] | 25 | 25 | – | – | 50 | 50 | 50 | 50 | 0 | 0 | – | – | responders at 10 mg/kg [2, 6]: 25%; responders at 10 mg/kg [2, 5]: 25% |
| O=C(CSc1nnc(-c2ccccc2Oc2ccccc2)o1)Nc1ccccc1[N+](=O)[O-] [Compound 8k, N-(2-nitrophenyl)-2-((5-(2-phenoxyphenyl)-1,3,4-oxadiazol-2-yl)thio)acetamide] | – | – | 75 | 75 | 75 | 75 | 50 | 50 | – | – | – | – | MES Number of animals protected / Number of tested animals [1]: 0/4; responders at 2 mg/kg [2, 4]: 0%; responders at 2 mg/kg [2, 5]: 0% |
| Cc1c(NC(=O)CSc2nnc(-c3ccccc3Oc3ccccc3)o2)cccc1[N+](=O)[O-] [Compound 8m, N-(2-methyl-3-nitrophenyl)-2-((5-(2-phenoxyphenyl)-1,3,4-oxadiazol-2-yl)thio)acetamide] | 25 | 25 | 50 | 50 | – | – | 0 | 0 | – | – | – | – | responders at 50 mg/kg [1, 7]: 0%; responders at 50 mg/kg ([1]; read-out: MES %Protection): 0%; responders at 1 mg/kg [2, 4]: 0%; responders at 1 mg/kg [2, 5]: 0% |
| CN1C(=O)CN=C(c2ccccc2)c2cc(Cl)ccc21 [Diazepam, reference compound] | – | – | – | – | – | – | – | – | – | – | – | – | MES Number of animals protected / Number of tested animals [1]: 0/6 |

Reference: paper PMC10353189, “Hybridization of the effective pharmacophores for treatment of epilepsy: design, synthesis, in vivo anticonvulsant activity, and in silico studies of phenoxyphenyl-1,3,4-oxadiazole-thio-N-phenylacetamid hybrids” (BMC Chemistry, 2023)
